Test results taken from patent US20250108038A1 (priority 2023, published 2025).
“And” between values parts separate entries of the source, which are not always exact repeats. Equal entries are not always repeated. Structures can show the parent of a compound that is named as a salt.

Columns and labels:
[1] = tested on: human 3D intestinal model (EpiIntestinal); assay: Intestinal permeability in the EpiIntestinal model; type: in vitro ADME; conditions: apical dose 100 μL of 10 mM stock solution, 120 min, 37° C.
Procedure: FIG. 2A. Intestinal permeability of Compound I-19. […] Samples were taken from the basolateral compartment at 0, 15, 30, 60, and 120 min. and were analyzed by LCMSMS for presence of parent compound. Values represent mean+SEM of n=3 separate experiments.
FIG. 2B. Intestinal permeability of Compound I-4 was determined in the human 3D intestinal model (Epilntestinal) from MatTek Corp. Tissues were dosed apically with 100 μL of 10 mM stock solution (4.25 μg) at 0 min. and the tissues were incubated with the test articles at 37° C. for a total of 120 min. Samples were taken from the basolateral compartment at 0, 15, 30, 60, and 120 min. and were analyzed by LCMSMS for presence of parent compound. Values represent mean+SEM of n=3 separate experiments.
Human 3D EpiIntestinal tissue model (MatTek, SMI-100, Lot #33921 Kit B) was used to model the intestine and was used for permeability studies. This model offers […] advantages over other permeability testing models such as Caco-2 cells. […]
The test articles (100 wL of 100 μM solution, or 4.25 ug) was applied to the apical surface of the EpiIntestinal model. […] Metabolic stability was determined by loss of parent compound using LCMSMS.
All data was compiled and organized in Excel. Mean, standard deviation, and standard deviation of the mean were calculated using Excel. […] The permeability coefficient (Papp) was calculated using the following equation: […]

[2] = Stability in components of rat blood; type: in vitro ADME; conditions: 0.5 mM, 37° C., 0-120 min
Procedure: FIG. 5A. […] Compound I-19 in components of rat blood. Red blood cells and plasma were isolated from whole blood. […] Values represent mean+SEM of n=3 separate experiments.
FIG. 5B. Stability of Compound I-4 in components of rat blood. Red blood cells and plasma were isolated from whole blood. […] Values represent mean+SEM of n=3 separate experiments.
Human and rat blood were centrifuged to separate out red blood cells at 1174×g for 15 min. The upper plasma level was aspirated with a micropipette and placed in a bleach solution for disposal. The RBC pellet was resuspended in sterile isotonic saline. The pellet was gently resuspended by rocking the tube. The sample was then centrifuged again to collect the RBC pellet and then resuspended and washed one more time following the same procedure. A total of three was done. Following the last wash and centrifugation, the RBCs were resuspended with PBS; and mixed by inversion. Aliquots of the resuspended and washed RBCs were then placed into 4 reaction tubes. These tubes were centrifuged to collect the RBCs. The fluid level was marked on each tube, then the supernatant was aspirated off and the cells resuspended with room temperature PBS pH 7.4 to the original mark. An aliquot of the RBC suspension was added to four sterile tubes containing PBS pH 7.4 at room temperature.
The stability of test articles in whole blood, red blood cells only, and plasma was done to determine stability in each blood compartment. 50 μL of test article was placed in each blood matrix. The final volume was 1 mL (0.5 mM). […] LCMSMS of parent compound was used to determine stability.

Long Evans rats = assay: Time-restricted (deprivation-induced) feeding, food intake; type: in vivo, Long Evans rat; conditions: for Food Consumption, AVG / Food Consumption: 2 h feeding; for Food Consumption, AVG: average of 12 animals; for Food Consumption: individual animals LT-1 to LT-12; for food intake (2 h feeding period): rat, in vivo
Procedure: Food consumption was limited to 2 h/day and so was motivated by hunger caused by 22 h food deprivation. Water was freely available 24 h/day.
Specifically, 12 male Long-Evans rats were food-deprived for 22 h with a 2 h feeding period each day. Rats were trained to consume daily food during the 2 h period over 25 days. The testing phase was initiated once the rats consistently consumed 16-18 g of food per day with ≤10% variance in amount of feed consumed. Feeding took place in designated individual boxes in a quiet room separate from the housing room. Continuous remote monitoring via video camera during feeding was used to assess the BSS. Food consumption was measured by weighing the total available food before and after the 2 h feeding window, correcting for spillage. Lorcaserin (1 mg/kg) was included as a reference control (Higgins et al, 2011, Neuropsychopharmacology. 37(5): 1177-1191). Subjects were tested using a repeated-measures, Latin square design with 2-3 days wash-out between treatment cycles.
Drug was administered at a volume of 1 mL/kg, intraperitoneal (IP). […]: 0.1, 0.3, 1, 3 mg/kg. There was a pretreatment time of 30 minutes.
Drug was administered at a volume of 1 mL/kg, subcutaneous (SC) route. One dose was tested: 1 mg/kg (expressed as base). There was a pretreatment time of 10 minutes.
Following a five day period of familiarization to the test facility, animals were placed on a restricted diet regimen, in which they were allotted approximately 40 g of standard laboratory chow once per day (between 10:00 h and 14:00 h). Rats were trained to consume the daily food (approximately 16-18 g of feed consumed) over a 2 h period. Daily food intakes were stable by study Day 25, with the quantity of feed consumed varying by ≤10% per day. Water was available ad-libitum. Subjects were pair-housed for the duration of the study and were maintained on a 12 h/12 h light/dark cycle with all testing conducted during the animals' light cycle. All animal use procedures were performed in accordance with the principles of the Canadian Council on Animal Care (CCAC).
Feed was measured using a certified scale according to standard operating procedures prior to testing. Residual feed was weighed following completion of the 2 h feeding window to track total intake (g).
Compound I-19 and Lorcaserin were prepared fresh on each test day. Test article was suspended in 0.8% DMSO, 6% PEG400, and 93.2% HβCD (6% in H2O) and sonicated until fully dissolved. […] Pretreatment time (ptt) was 30 minutes prior to commencement of testing. Lorcaserin was dissolved in 0.9% saline and administered via the subcutaneous route with a dose volume of 1 mL/kg with a ppt of 10 minutes.
The primary measure from the BSS test was total measured food intake (g), expressed as mean+SEM. Data were analysed by repeated-measures ANOVA (with treatment as a factor) (Statistica Version 11, Statsoft Inc. [2012]). Planned post-hoc comparisons were made in the event of a significant main effect using Dunnett's test. Significance was set at P<0.05.

SMILES | Papp [1] [×10⁻⁶ cm/s] | % parent compound remaining ([2]; rat plasma) | % parent compound remaining ([2]; rat red blood cells) | % parent compound remaining ([2]; rat whole blood) | Food Consumption, AVG (Long Evans rats; Lorcaserin 1 mg/kg subcutaneous) [grams] | Food Consumption (Long Evans rats; Lorcaserin 1 mg/kg subcutaneous, hydrochloride) | decrease of food intake vs vehicle (Long Evans rats; lorcaserin 1 mg/kg SC) [%] | food intake (2 h feeding period) (Long Evans rats) [g] | Food Consumption, AVG (Long Evans rats; 0.1 mg/kg intraperitoneal) [grams] | Food Consumption (Long Evans rats; 0.1 mg/kg intraperitoneal) | Food Consumption, AVG (Long Evans rats; 0.3 mg/kg intraperitoneal) [grams] | Food Consumption (Long Evans rats; 0.3 mg/kg intraperitoneal) | Food Consumption, AVG (Long Evans rats; 1 mg/kg intraperitoneal) [grams] | Food Consumption (Long Evans rats; 1 mg/kg intraperitoneal) | decrease of food intake vs vehicle (Long Evans rats; 3 mg/kg Compound I-19 IP) [%] | Food Consumption, AVG (Long Evans rats; 3 mg/kg intraperitoneal) [grams] | Food Consumption (Long Evans rats; 3 mg/kg intraperitoneal) | effect on food intake (Long Evans rats; acute, 0.1, 0.3, 1, 3 mg/kg IP)
COCCOC1(c2ccc(Cl)cc2)c2ccccc2C2=NCCN21 (centres unmarked) [Compound I-4] | 0.155 | no significant change in the amount of parent compound | small time-dependent decrease in the amount of parent compound remaining | small time-dependent decrease in the amount of parent compound remaining |  |  |  |  |  |  |  |  |  |  |  |  |  | 
C[C@H]1CNCCc2ccc(Cl)cc21 [lorcaserin, Lorcaserin hydrochloride, reference compound] |  |  |  |  | 14.6 | 17.9 grams and 12.7 grams (2×) and 12.5 grams and 18 grams and 17.7 grams and 16.3 grams and 15.7 grams and 12.9 grams and 13.1 grams and 13.5 grams and 12 grams | 17.4 | 14.6 ± 0.7 |  |  |  |  |  |  |  |  |  | 
Clc1ccc(C2(OCC3OCCO3)c3ccccc3C3=NCCN32)cc1 (centres unmarked) [Compound I-19] | 0.106 | small time-dependent decrease in the amount of parent compound present | small time-dependent decrease in the amount of parent compound present | small time-dependent decrease in the amount of parent compound present |  |  |  | 15.9 ± 0.5 | 17.8 | 22.2 grams and 13.4 grams and 17.8 grams and 18.2 grams and 19.4 grams (2×) and 20.7 grams and 18 grams and 15.7 grams and 14.5 grams and 14.1 grams and 19.7 grams | 17.2 | 22.1 grams and 15 grams and 18.8 grams and 15.4 grams and 19 grams and 18.2 grams and 18.1 grams and 15.8 grams and 17.8 grams and 14.9 grams and 14.5 grams and 16.5 grams | 15.8 | 18.7 grams and 13.2 grams and 17.8 grams and 15.8 grams and 19.3 grams and 17.7 grams and 13.4 grams and 14 grams and 14.9 grams (2×) and 13.8 grams and 16.3 grams | 10.6 | 15.9 | 19 grams and 14.1 grams and 18.3 grams and 14 grams and 17.7 grams and 16.6 grams and 16.3 grams and 14.8 grams and 15.5 grams and 15 grams and 13.1 grams and 16.8 grams | significantly decreased food intake at 1 and 3 mg/kg
